Measurements as given in patent US8436023B2, “Cyclohexyl-azetidinyl antagonists of CCR2” (Janssen Pharmaceutica N.V., priority 2010, dated 2013).

Molecular target: T1, CCR2 (Homo sapiens, UniProt P41597)
T1 construct: host or cells: THP-1 human monocytic cells
T1 sequence (P41597 1-360 isoform P41597-2): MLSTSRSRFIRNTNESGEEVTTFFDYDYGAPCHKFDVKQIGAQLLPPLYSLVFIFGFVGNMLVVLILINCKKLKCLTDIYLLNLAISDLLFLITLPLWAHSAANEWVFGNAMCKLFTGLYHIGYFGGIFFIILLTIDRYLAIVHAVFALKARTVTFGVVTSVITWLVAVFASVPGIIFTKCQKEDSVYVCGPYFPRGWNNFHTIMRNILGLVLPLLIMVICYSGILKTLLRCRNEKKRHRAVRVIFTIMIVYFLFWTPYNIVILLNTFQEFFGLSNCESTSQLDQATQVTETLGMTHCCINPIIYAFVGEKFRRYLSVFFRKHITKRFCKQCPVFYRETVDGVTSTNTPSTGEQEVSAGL
Assay: MCP-1 Receptor Binding Assay in THP-1 Cells
Conditions: 0.5 nM 125I labeled MCP-1, 2 hours at 30° C., less polar isomer tested where stated, read-out: Inhibition of MCP-1 Binding IC50, CCR2 Binding
In short: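 Whole THP-1 cells incubated 2 h at 30 °C with 0.5 nM 125I-MCP-1 and varying concentrations of test compound; bound radioactivity counted after filter harvesting. Where no IC50 obtained, % inhibition given at 25 μM.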

| SMILES | IC50 [nM] |
| --- | --- |
| CCn1nc(NCC(=O)NC2CN(C3CCC(O)(c4nccs4)CC3)C2)c2cc(C(F)(F)F)ccc21 (centres unmarked) [Example 68, 2-(1-Ethyl-5-trifluoromethyl-1H-indazol-3-ylamino)-N-[1-(4-hydroxy-4-thiazol-2-yl-cyclohexyl)-azetidin-3-yl]-acetamide] | 51 |
| CCOC(=O)C1CCC(N2CC(NC(=O)CNc3noc4ccc(OC(F)(F)F)cc34)C2)CC1 (centres unmarked) [Example 16, 4-{3-[2-(5-Trifluoromethoxy-benzo[d]isoxazol-3-ylamino)-acetylamino]-azetidin-1-yl}-cyclohexanecarboxylic acid ethyl ester] | 71 |
| Cn1nc(NCC(=O)NC2CN(C3CCC(O)(c4nccs4)CC3)C2)c2cc(C(F)(F)F)ccc21 (centres unmarked) [Example 22, N-[1-(4-Hydroxy-4-thiazol-2-yl-cyclohexyl)-azetidin-3-yl]-2-(1-methyl-5-trifluoromethyl-1H-indazol-3-ylamino)-acetamide] | 13 |
| CC(C)(C)NC(=O)n1nc(NCC(=O)NC2CN(C3CCC(O)(c4nccs4)CC3)C2)c2cc(C(F)(F)F)ccc21 (centres unmarked) [Example 80, 3-({[1-(4-Hydroxy-4-thiazol-2-yl-cyclohexyl)-azetidin-3-ylcarbamoyl]-methyl}-amino)-5-trifluoromethyl-indazole-1-carboxylic acid tert-butylamide] | 75 |
| CC(C)(C)OC(=O)NC1CCC(N2CC(NC(=O)CNc3n[nH]c4ccc(C(F)(F)F)cc34)C2)CC1 (centres unmarked) [Example 51, (4-{3-[2-(5-Trifluoromethyl-1H-indazol-3-ylamino)-acetylamino]-azetidin-1-yl}-cyclohexyl)-carbamic acid tert-butyl ester] | 87 |
| CCn1nc(NCC(=O)NC2CN(C3CCC(C(C)C)CC3)C2)c2cc(C(F)(F)F)ccc21 (centres unmarked) [Example 71, 2-(1-Ethyl-5-trifluoromethyl-1H-indazol-3-ylamino)-N-[1-(4-isopropyl-cyclohexyl)-azetidin-3-yl]-acetamide] | 730 |
| Cn1nc(NCC(=O)NC2CN(C3CCC(O)(c4cncs4)CC3)C2)c2cc(C(F)(F)F)ccc21 (centres unmarked) [Example 21, N-[1-(4-Hydroxy-4-thiazol-5-yl-cyclohexyl)-azetidin-3-yl]-2-(1-methyl-5-trifluoromethyl-1H-indazol-3-ylamino)-acetamide] | 28 |
| Cn1nc(NCC(=O)NC2CN(C3CCC(O)(c4cccnc4)CC3)C2)c2cc(C(F)(F)F)ccc21 (centres unmarked) [Example 19, N-[1-(4-Hydroxy-4-pyridin-3-yl-cyclohexyl)-azetidin-3-yl]-2-(1-methyl-5-trifluoromethyl-1H-indazol-3-ylamino)-acetamide] | 56 |
| Cn1nc(NCC(=O)NC2CN(C3CCC(O)(c4cncs4)CC3)C2)c2cc(C(O)C(F)(F)F)ccc21 (centres unmarked) [Example 61, N-[1-(4-Hydroxy-4-thiazol-5-yl-cyclohexyl)-azetidin-3-yl]-2-[1-methyl-5-(2,2,2-trifluoro-1-hydroxy-ethyl)-1H-indazol-3-ylamino]-acetamide] | 1700 |
| Cc1ccc(C2(O)CCC(N3CC(NC(=O)CNc4nn(C)c5ccc(OCC(F)(F)F)cc45)C3)CC2)cn1 (centres unmarked) [Example 101] | 1100 |
| C=CCn1nc(NCC(=O)NC2CN(C3CCC(C(=O)OCC)CC3)C2)c2cc(C(F)(F)F)ccc21 (centres unmarked) [Example 94, 4-{3-[2-(1-Allyl-5-trifluoromethyl-1H-indazol-3-ylamino)-acetylamino]-azetidin-1-yl}-cyclohexanecarboxylic acid ethyl ester] | 53 |
| CCC(O)[C@H]1CC[C@H](N2CC(NC(=O)CNc3n[nH]c4ncc(C(F)(F)F)cc34)C2)CC1 (single isomer, unassigned) [Example 106] | 330 |
| CCOC(=O)C1CCC(N2CC(NC(=O)CNc3nn(Cc4ccccc4)c4ccc(C(F)(F)F)cc34)C2)CC1 (centres unmarked) [Example 97, 4-{3-[2-(1-Benzyl-5-trifluoromethyl-1H-indazol-3-ylamino)-acetylamino]-azetidin-1-yl}-cyclohexane carboxylic acid ethyl ester] | 170 |
| C=CCn1nc(NCC(=O)NC2CN(C3CCC(C4CCCCC4)CC3)C2)c2cc(C(F)(F)F)ccc21 (centres unmarked) [Example 95, 2-(1-Allyl-5-trifluoromethyl-1H-indazol-3-ylamino)-N-(1-bicyclohexyl-4-yl-azetidin-3-yl)-acetamide] | 3600 |
| Cn1nc(NCC(=O)NC2CN(C3CCC(O)(c4ccccc4)CC3)C2)c2cc(C(F)(F)F)ccc21 (centres unmarked) [Example 29, N-[1-(4-Hydroxy-4-phenyl-cyclohexyl)-azetidin-3-yl]-2-(1-methyl-5-trifluoromethyl-1H-indazol-3-ylamino)-acetamide] | 19 |
| CCOCC1CCC(N2CC(NC(=O)CNc3nn(C)c4ccc(C(F)(F)F)cc34)C2)CC1 (centres unmarked) [Example 34, N-[1-(4-Ethoxymethyl-cyclohexyl)-azetidin-3-yl]-2-(1-methyl-5-trifluoromethyl-1H-indazol-3-ylamino)-acetamide] | 27 |
| CC(C)NC(=O)n1nc(NCC(=O)NC2CN(C3CCC(C(C)C)CC3)C2)c2cc(C(F)(F)F)ccc21 (centres unmarked) [Example 92, 3-({[1-(4-Isopropyl-cyclohexyl)-azetidin-3-ylcarbamoyl]-methyl}-amino)-5-trifluoromethyl-indazole-1-carboxylic acid isopropylamide] | 1600 |
